Laboratory results published in article PMC8128204, “Development of 3-methyl/3-(morpholinomethyl)benzofuran derivatives as novel antitumor agents towards non-small cell lung cancer cells” (Journal of Enzyme Inhibition and Medicinal Chemistry, 2021).
Values after ≈ are worked out from the molar mass of the structure shown. Where two headings read alike, the source gives them in different places.

What was measured:
[1] = tested on: NCI-H23 cells; experiment: MTT anti-proliferative assay, NCI-H23; assay type: cell-based, human; conditions: Homo sapiens, NCI-H23, 48 h, mean ± SD of three experiments
Description: (§1) The antiproliferative activity of the synthesised derivatives of the 3-methylbenzofuran series (4a–d, 6a–c, 8a–c and 11) and the 3-(morpholinomethyl)benzofuran series (15a–c, 16a–b, 17a–b and 18) was evaluated against non-small cell lung carcinoma (NSCLC) A549 and NCI-H23 cell lines, following the procedures of the MTT assay. […] 1. Anti-proliferative action toward human […] cell lines […]
(§2) The two examined human non-small cell lung carcinoma cell lines (A549 and NCI-H23) have been obtained from American Type Culture Collection (ATCC). The cells were maintained in Dulbecco's modified Eagle's medium (DMEM) supplemented with 10% heat inactivated fetal calf serum (GIBCO), penicillin (100 U/ml) and streptomycin (100 µg/ml) at 37 °C in humidified atmosphere containing 5% CO2. […]
(§3) flask in 5 ml of culture medium. The anti-proliferative activity of the tested 3-methylbenzofurans (4a-d, 6a-c, 8a-c and 11) and 3-(morpholinomethyl)benzofurans (15a-c, 16a-b, 17a-b and 18) measured in vitro using the MTT assay. Briefly, cells were plated out in 96-well microtiter plate (0.5X10^4 cells/well) and incubated for 24 h before treatment with the tested benzofurans to allow cells to attach to the bottom of the well of the plate. Tested benzofuranswere were dissolved in DMSO at 1 mg/ml immediately before use and diluted to the appropriate volume just before addition to the cell culture. […]
(§4) added to the cells (three wells were prepared for each individual dose). Cells were incubated with […]
(§5) At the end of exposure, MTT […]
(§6) solution in PBS (5 mg/ml) was then added to all well including no cell blank and left to incubate for 90 min. The formation of formazan crystals were visually confirmed using phase contract microscopy. DMSO (100 µl/well) was added to dissolve the formazan crystals with shaking for 10 min after which the absorbance was read at 590 nm against no cell blanks on a microplate reader.
(§7) The relation between percent of surviving fraction and log drug concentration is plotted to get the survival curve for each cell line.

[2] = tested on: A549 cells; experiment: MTT anti-proliferative assay, A549; assay type: cell-based, human; conditions: Homo sapiens, A549, 48 h, mean ± SD of three experiments
Description: as §1, §2, §3, §4, §5, §6, §7

[3] = target: VEGFR-2 (Homo sapiens, UniProt P35968); experiment: VEGFR-2 kinase inhibitory assay (VEGFR2(KDR) Kinase Assay Kit)
VEGFR-2, sequence (P35968 20-1356): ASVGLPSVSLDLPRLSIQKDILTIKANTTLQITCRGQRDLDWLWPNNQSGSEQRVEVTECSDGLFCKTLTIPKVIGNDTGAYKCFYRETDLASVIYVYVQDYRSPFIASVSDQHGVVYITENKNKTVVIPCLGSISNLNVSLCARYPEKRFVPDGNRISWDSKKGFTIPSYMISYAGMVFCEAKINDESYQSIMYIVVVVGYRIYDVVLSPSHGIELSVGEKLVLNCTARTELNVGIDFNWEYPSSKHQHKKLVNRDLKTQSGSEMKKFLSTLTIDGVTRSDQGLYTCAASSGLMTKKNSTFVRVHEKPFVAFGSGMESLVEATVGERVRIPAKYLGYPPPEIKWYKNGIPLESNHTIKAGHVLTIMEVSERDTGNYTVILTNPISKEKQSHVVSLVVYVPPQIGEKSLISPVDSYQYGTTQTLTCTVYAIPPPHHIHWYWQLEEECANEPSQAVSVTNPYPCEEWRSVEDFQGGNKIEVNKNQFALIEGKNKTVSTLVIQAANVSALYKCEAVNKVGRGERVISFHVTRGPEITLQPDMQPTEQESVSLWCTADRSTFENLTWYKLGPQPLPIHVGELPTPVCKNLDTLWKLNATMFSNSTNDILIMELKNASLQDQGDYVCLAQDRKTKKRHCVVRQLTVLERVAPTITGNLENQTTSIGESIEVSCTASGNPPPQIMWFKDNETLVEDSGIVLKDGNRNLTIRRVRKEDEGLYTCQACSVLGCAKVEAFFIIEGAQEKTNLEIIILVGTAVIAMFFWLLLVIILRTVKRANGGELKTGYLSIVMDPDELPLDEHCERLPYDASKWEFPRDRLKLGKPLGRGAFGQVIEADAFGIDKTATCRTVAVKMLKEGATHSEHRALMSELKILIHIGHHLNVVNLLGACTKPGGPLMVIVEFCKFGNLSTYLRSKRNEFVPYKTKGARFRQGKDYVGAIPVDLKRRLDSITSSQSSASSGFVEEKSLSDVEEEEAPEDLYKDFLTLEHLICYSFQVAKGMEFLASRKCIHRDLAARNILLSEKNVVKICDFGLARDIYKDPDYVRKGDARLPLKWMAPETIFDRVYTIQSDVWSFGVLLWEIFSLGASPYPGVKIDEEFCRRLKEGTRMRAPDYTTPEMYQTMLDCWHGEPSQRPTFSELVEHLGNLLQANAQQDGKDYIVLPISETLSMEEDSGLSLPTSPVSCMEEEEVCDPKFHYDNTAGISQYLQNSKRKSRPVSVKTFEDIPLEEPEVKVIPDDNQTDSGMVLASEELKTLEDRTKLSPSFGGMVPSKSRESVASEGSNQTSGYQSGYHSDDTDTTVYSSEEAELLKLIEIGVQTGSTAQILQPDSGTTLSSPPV
Description: CA, USA), according to the manufacturer’s instructions.

[4] = tested on: A549 cells; experiment: Annexin V-FITC/PI apoptosis assay, A549; assay type: cell-based, human; conditions: A549, at IC50 concentration; control 1.37%
Description: The apoptotic effect of the three benzofurans (4b, 15a and 16a) was evaluated using Annexin VFITC/PI (AV/PI) dual staining assay to validate if their observed cytotoxic effect is due to non-specific necrosis or physiological apoptosis. […] Moreover, the apoptotic effects of 3-(morpholinomethyl)benzofuran derivatives 15a and 16a were evaluated in NCI-H23 cancer cell line.
(§8) Lung cancer A549 cells were treated with benzofuran 4b, whereas NCI-H23 cells were treated […]
(§9) twice with ice-cold phosphate buffered saline (PBS). Subsequently, the treated cells were collected by centrifugation, fixed in ice-cold 70% (v/v) ethanol, washed with PBS, re-suspended with 100 μg/mL RNase, stained with 40 μg/mL PI, and analyzed by flow cytometry using FACS Calibur (Becton Dickinson, BD, Franklin Lakes, NJ, USA). The cell cycle distributions were calculated using CellQuest software 5.1 (Becton Dickinson).
3. Annexin V-FITC Apoptosis Assay […]
Cells were then rinsed in binding buffer and resuspended in 150 μL of binding buffer with the addition of 1 μL of DAPI (1 μg/μL in PBS). Cells were then analyzed using the flow cytometer BD FACS Canto II and the results were interpreted with FlowJo7.6.4 software (Tree Star, Ashland, 4. VEGFR-2 Kinase Inhibitory Activity […]

[5] = tested on: A549 cells; experiment: Cell cycle analysis (PI flow cytometry), A549; assay type: cell-based, human; conditions: A549, 24 h at IC50 concentration
Description: as §8
as §9, with “Dickinson). […]” for “Dickinson).”

[6] = tested on: WI-38 cell line; experiment: Cytotoxic activity against non-tumorigenic WI-38 cell line; assay type: cell-based, human
Text: Antiproliferative agents are designed to inhibit the cellular growth of tumour cells selectively, while sparing the normal cells.

[7] = tested on: M. tuberculosis ATCC 27294; experiment: Microplate Alamar Blue Assay, anti-tubercular activity; assay type: cell-based; conditions: MABA, 7 days

Structure (SMILES): COc1ccc(NC(=S)NNC(=O)c2oc3ccccc3c2C)cc1 [Compound 4b, N-(4-Methoxyphenyl)-2-(3-methylbenzofuran-2-carbonyl)hydrazine-1-carbothioamide]
- IC50 [1]: 5.9 ± 0.29 µM
- melting point: 190 to 193 °C
- IC50 [2]: 1.48 ± 0.08 µM
- IC50 [3]: 0.078 ± 0.0046 µM
- apoptosis (total) [4]: 42.05%
- S phase, fold vs control ([5]; attenuated): 0.46 fold
- G2/M phase cell population, fold vs control ([5]; augmentation): 2.67 fold
- sub-G1 phase cell population, fold vs control ([5]; augmentation): 21.76 fold
- G0–G1 phase, fold vs control ([5]; reduced): 0.67 fold
- Mean tumour selectivity ([6]; S.I. WI-38/A549 and NCI-H23): 5.3
- IC50 ([6]; non-tumorigenic human lung WI-38 cell line): 19.5 ± 1.18 µM
- MIC [7]: 500 µg/mL (≈ 1410 µM)
- MIC ([7]; Mycobacterium tuberculosis, ATCC27294, 168 h, read-out: MIC): 250 µg/mL (≈ 703 µM)
